Reference: patent US8603976B2, “Methods of enhancing functioning of the large intestine” (1149336 Ontario, Inc., priority 1997, dated 2013)

Legend:
Assay type in all cases: in vivo
Female CD1 mice [1] = experiment: Effect of GLP-2 on small and large intestinal mass and protein content in mice (Example 1); settings: 2.5 μg twice daily subcutaneously for 10 days
Experimental: In this experiment, the effect of GLP-2 on both small and large intestinal mass, as well as the relative contribution of water to the increment in intestine weight, was examined.
Female CD1 mice (6 weeks old) were treated with rat GLP-2, 2.5 μg twice daily (subcutaneously) for 10 days. Following treatment, mice were fasted 24 hours, anesthetized with CO2 and sacrificed. The small and large intestine was removed from the peritoneal cavity (from pylorus to cecum), cleaned, weighed and measured. For comparative purposes, 2 cm segments of proximal jejunum, ileum and colon were obtained from each animal from the identical anatomical positions (as measured from the pylorus and cecum) and analyzed for protein content, wet weight and dry weight (expressed as mean±S.E.M in mg/2 cm segment).
For protein content, two 2 cm segments from the proximal jejunum, ileum and colon were removed, placed in 13 ml tubes containing 2 ml of PBS, homogenized for 20 seconds in a Brinkmann Homogenizer and placed on ice. The tubes were centrifuged for 5 min. at 1000 g and 100 μl aliquots of supernatant homogenate removed for determination of protein content using the modified Bradford method.
To measure wet and dry weight, 2 cm intestinal segments were weighed, placed in culture tubes, reweighed, then freeze-dried overnight in a Fast-Freeze flask (Labconco) and reweighed.

Female CD1 mice [2] = experiment: 5% dextran sulfate induced ulcerative colitis model in mice (Example 2)
From the text: This experiment was designed to test the activity of GLP-2 in ameliorating disease symptoms in an animal model of colitis. A 5% dextran sulfate solution was used to induce ulcerative colitis in test mice (Okayasu et al., 1990, 98:694-702).
Forty female CD1 mice (six-weeks old and approximately 25 g, obtained from Charles River) were used in the experiment. On day 1, the mice were weighed using a Mettler PJ300 scale and randomly allocated to 1 of eight treatment groups. The groups, each consisting of 5 mice housed together, were treated as follows:
These two groups were fed normal drinking water.
Group 1) Ten days of injections (PBS), day 7 to day 17, animals sacrificed day 17.
Group 2) Ten days of injections human (Gly 2) GLP-2 (2.5 μg bid), day 7 to day 17, animals sacrificed day 17.
Groups 3 and 4—Test Group
Drinking water given to these groups contained 5% Dextran sulfate (DS).
Group 3) DS given from day 7 to day 17, PBS injections given from day 7 to day 17, animals sacrificed day 17.
Group 4) DS given from day 7 to day 17, human[Gly^2] GLP-2 (2.5 μg bid) injections given day 7 to day 17, animals sacrificed day 17.
Groups 5 and 6—Test Group
Drinking water contained 5% Dextran sulfate day 2 to day 9, followed by 4 days of normal drinking water. Ten days of injections were started day 4. […]
Dextran sulfate (USB, Cleveland, Ohio, MW 40,000-50,000) was dissolved into double distilled water, and placed into the water bottles. Water bottles were topped up daily. GLP-2 peptide was reconstituted and aliquoted on the day prior to the first day of injection and kept in a −20 C. freezer. Human [Gly^2]GLP-2 (5 mg/mL) was reconstituted in PBS. One microliter of 5N NaOH was required to dissolve the peptide in a volume of 1 ml. The injection volume of 0.5 ml was constant throughout the experiment using ½ cc U-100 Insulin Syringes Becton Dickinson and Company, NJ). Control mice (cage 1) received the same volume (0.5 ml) of phosphate buffered saline (PBS—137 mM NaCl, 2.7 mM KCl, 4.3 mM Na2HPO4.7H2O, 1.4 mM KH2PO4, pH 7.3).
Subcutaneous injections in the right hind quarter began on various days depending on the treatment conditions given above. All injections were twice a day, at 8 am and 6 pm. Mice in cages 1 and 2 were fasted on the day prior to sacrifice. Body weight measurements were made on day 1, day 7, day 12 and the day of sacrifice. The weight and length of the large intestine of each animal was measured after sacrifice.

mice = experiment: Mortality in mice exposed to 10% colitis-inducing dextran sulfate (Example 3); settings: 10% dextran sulfate in drinking water, 2.5 μg per injection s.c. twice per day, after 9 days; saline group 3 of 10
Experimental: Mice were also treated with 2 subcutaneous injections per day (0.5 ml) of either saline, or [GLY^2]hGLP-2, 2.5 μg per injection. After 9 days, the experiment was stopped.

[3] = 2 cm segment, vs PBS-treated mice, p<0.05
[4] = 5% DS day 7 to day 17, 2.5 μg bid s.c. day 7 to day 17, group 4 vs group 3 (PBS)
[5] = normal drinking water, 2.5 μg bid s.c. for ten days, group 2 vs group 1 (PBS)

Row | Substance | dry weight of intestinal segments from the proximal jejunum (Female CD1 mice [1]; [3]) | wet weight of intestinal segments from the proximal jejunum (Female CD1 mice [1]; [3]) | weights of the segments obtained from the colon (Female CD1 mice [1]; 2 cm segment, wet and dry weight) | protein content in the colon (Female CD1 mice [1]; compared to PBS-treated mice) | protein content in the jejunum (Female CD1 mice [1]; compared to PBS-treated mice) | body weight through the course of the experiment (Female CD1 mice [2]; [4]) | large intestine weight at sacrifice (Female CD1 mice [2]; [4]) | large intestine length during experimentally induced colitis (Female CD1 mice [2]; 5% DS day 7 to day 17, 2.5 μg bid s.c., group 4 vs group 3 (PBS)) | morbidity, dehydration and reduction in mass of the large intestine caused by induced colitis (Female CD1 mice [2]; agonist given at the same time as 5% DS, day 7 to day 17, group 4 vs group 3) | large intestine length (Female CD1 mice [2]; [5]) | post-treatment large intestinal mass (Female CD1 mice [2]; [5]) | survival (mice)
1 | rat GLP-2: rat GLP-2, 33 amino acid peptide having the sequence SEQ ID NO: 2; used in Example 1 (HADGSFSDEMNTILDNLATRDFINWLIQTKITD; listed as Rattus sp.) | significantly increased | significantly increased | slightly, but consistently, increased | statistically significant increase | statistically significant increase |  |  |  |  |  |  | 
2 | [Gly^2]hGLP-2: human GLP-2 wherein the alanine at position 2 is replaced by a glycine; DPP-IV resistant analog (HGDGSFSDEMNTILDNLAARDFINWLIQTKITD; Glucagon-like peptide 2; UniProt P01275 146-178, looked up, variant A2G) |  |  |  |  |  | maintain body weight better | significantly heavier large intestines | also exhibited, although to a lesser degree | ameliorates the severe morbidity, dehydration, and reduction in mass of the large intestine | significant increase in large intestine length | causes an increase in large intestinal mass | 7 of 10
